{"source": "patent US4551453A", "about": "“2-(ω-Alkylaminoalkyl)- and 2-(ω-dialkylaminoalkyl-3-(4-X-benzylidene)-phthalimidines” (Laboratori Baldacci SpA, priority 1982, dated 1985)", "key": {"[1]": {"test_system": "sciatic nerve of edible frog", "assay": "Test on the sciatic nerve of frog (inhibition of action potential)", "conditions": "for times more powerful than procaine: sciatic nerve of frog, vs procaine; for times more active than lidocaine: deduced from frog sciatic nerve comparison with procaine and literature lidocaine/procaine ratio", "method": "There was assessed the concentration of the tested substances (AL 12, AL 12 B and AL 5) capable of inhibiting or reducing the action potential of the sciatic nerve of edible frog after removal of a lenght of perinerium.\nThe stimulating device was sending maximum pulses of 0.1 msec of duration.\nThe reductions of the action potential after application of the substances were indicated as percentages of the initial action potential.\nThe comparison substance was procaine at the following concentrations: 0.4-0.6 and 0.8M"}, "[2]": {"assay": "Lethality and toxicity for single dose (rat)", "conditions": "in vivo, ip", "excerpt": "Lethality and toxicity for single dose"}, "[3]": {"test_system": "Salmonella Typhymurium", "assay": "Ames test", "format": "cell-based", "conditions": "up to the concentration of 5 ml (so in the source)", "method": "(§1) The compound AL 12 was subjected to the tests of genic mutation. All the tests used for such experiments were carried out and precisely:\n(a) Ames test using as the substrate a protocariote organism as Salmonella Typhymurium;"}, "[4]": {"test_system": "Schizosaccharomyces Pombe", "assay": "Test of genic mutation (forwardly)", "format": "cell-based", "conditions": "up to the concentration of 5 ml (so in the source)", "method": "as §1\n(b) Test of genic mutation (forwardly) of Schizosaccharomyces Pombe, permitting the evaluation of every mutagenic event capable of varying the functionality of every 5 genes involved in the synthesis of adenine;"}, "[5]": {"test_system": "cellular line Hela of human fibroplasts", "assay": "DNA recovery test (non programmed synthesis of recovery DNA)", "format": "cell-based", "conditions": "up to the concentration of 5 ml (so in the source)", "method": "as §1\n(c) DNA recovery test, i.e. test of the non programmed synthesis of recovery DNA on the cellular line Hela of human fibroplasts."}, "[6]": {"test_system": "rabbit cornea", "assay": "Test of the rabbit cornea", "format": "in vivo", "excerpt": "There were used amounts of AL 12 of 0.25-0.50-1.0% in comparison with amounts of 1% and 2% of xylocaine."}, "[7]": {"test_system": "vagal nerve of chicken", "assay": "Test of inhibition of the action potential of the vagal nerve of chicken", "conditions": "for IC50: parameter (b), stimulations higher than the maximum, read-out: ED 50, inhibition of the width of the action potential; for effects vs tetracaine: same molar concentrations as tetracaine", "excerpt": "For these tests two investigation parameters were selected:\n(a) increase of the stimulating threshold necessary to induce the appearance of the action potential;\n(b) inhibition of the potential width as induced by the supra maximum stimulation. AL 12 and AL 12 B were compared with the tetracaine."}, "[8]": {"assay": "Pharmacodynamic tests (overall local anesthetic activity comparison)", "conditions": "AL 12 vs lidocaine, as it appears from the pharmacodynamic tests", "method": "As regards the pharmacodynamic tests, they were carried out on the following compounds:\nThe local anesthetic power of these compounds was tested in comparison with procaine, xylocaine and tetracaine."}, "[9]": {"test_system": "mice", "conditions": "i.v. route"}, "[10]": {"assay": "in vivo", "conditions": "mouse"}, "[11]": {"assay": "60 day intramuscular toxicological study", "format": "in vivo, rats", "conditions": "rat, in vivo, im; rats, i.m., 60 days; read-out: dosage of first toxic alterations relative to single dose useful in the human being", "method": "(§2) In order to shown the potential toxicity of the compound AL 12 B a toxicological study was programmed which either for the duration of the administration period (60 days), and for the route of introduction in the organism (intramuscular) and for the variety of used dosages (5-10-20 mg/kg) was surely suitable to indicate the possible toxicity of the substance.\n(§3) It is pointed out that the lowest dose used in the test is already about 5 to 10 times higher than the single therapeutical dose, possibly used by infiltration in the human being. Male and female rats, having respectively a body weight of about 90 and 65 g, were divided in groups of 6-9 animals of the same sex and stalled in 2 to 3 animals per cage with water and food ad libitum.\n(§4) The environment conditions were maintained constant at 24° C., moisture at night-day cycle.\n(§5) The drug in apirogenic sterile solution was daily injected by intramuscolar route. At the end of the treatment the animals were anesthetized for the blood removal for the hematochemical and hematological examinations. The animals were than sacrificed and the weight of the single fresh organs was carefuly recorded. The hematochemical parameters which were taken into consideration were the following: glycemia, uricemia, alkaline phosphatase (ALP) malate dehydrogenase (MDH), acetylcholinesterase (CHE), SGPT, SGOT, L-y-glutamyltransferase (Y.G.T.), ornitincarbonyltransferase (O.C.T.), triocylglycerolacylhydrolase (Lipase), isocitratedehydrogenase (ICDH), sorbitole dehydrogenase (SDH), hydroxybutyrate dehydrogenase (HCDH), lactic dehydrogenase (LDHP), […] arylamidase (LAP), sodiemia, potassiemia, chloridemia, magnesiemia, calcemia, total tryglicerides, albumins, globulins, A/G total proteins, total cholesterole, amylasemia, creatininemia. Some hematological parameters were furthermore measured: red corpuscles, platelets, white corpusles, leucocitary form, hemoglobine.\n(§6) The urinary parameters taken into consideration were, besides the 24 hour volume, azotemia, creatininuria, amylasuria, uricuria, calciuria, chlorides, sodium and potassium.\n(§7) For the statistical evaluations of the weight of the fresh organs the analysis of the covariations was effected in order to eliminate the possible influences of the body weight onto the organ weight.\n(§8) The hematological and hematochemical parameters were statistically balanced by means of the variancy analysis by taking into consideration all the gropus and the Student \"t\" amongst the single treated groups and the control group.\n(§9) The homogeneity of the leucocitary form was investigated by the .chi.^2 test."}, "[12]": {"test_system": "Male and female rats", "assay": "60 day intramuscular toxicological study", "format": "in vivo", "conditions": "60 days", "method": "as §2, §3, §4, §5, §6, §7, §8, §9"}, "[13]": {"test_system": "Wistar rats", "assay": "Subacute toxicity, 15 days intramuscular", "conditions": "10 mg/kg AL 12 or lidocaine at equivalent molecular dose", "method": "It was tested in two stocks of Wistar rats, in three groups each comprising 20 animals, (10 male and 10 female).\nThe injections were carried out by intramuscolar route in a point of the thigh for 15 days."}, "[14]": {"test_system": "sciatic nerve of edible frog", "conditions": "as unanimously stated in the literature; cited from earlier work"}}, "note": "Structures can show the parent of a compound that is named as a salt.", "data": [{"smiles": "CN(C)CCCN1C(=O)c2ccccc2C1=Cc1ccccc1", "note": "[AL 5, 3-benzylidene-2-(γ-dimethylaminopropyl)-phthalimidine hydrochloride]", "values": [{"measurement": "times more powerful than procaine", "setting": "[1]", "value": "about 5 times"}]}, {"smiles": "CCN(CC)CCN1C(=O)c2ccccc2C1=Cc1ccc(OC)cc1", "note": "[AL 12, 3-(4-methoxybenzylidene)-2-(β-diethylaminoetyl)phthalimidine hydrochloride]", "values": [{"measurement": "LD50", "setting": "[2]", "value": 52.5, "unit": "mg/kg"}, {"measurement": "induction of mutations, Ames test", "setting": "[3]", "value": "unable to induce mutations"}, {"measurement": "induction of mutations, genic mutation (forwardly)", "setting": "[4]", "value": "unable to induce mutations"}, {"measurement": "induction of mutations, DNA recovery test", "setting": "[5]", "value": "unable to induce mutations"}, {"measurement": "duration of complete anesthesy", "setting": "[6]; 0.25% AL 12", "value": 30, "unit": "min"}, {"measurement": "duration of complete anesthesy vs xylocaine at a 4 times higher concentration", "setting": "[6]; 0.25% AL 12 vs 4 times higher xylocaine", "value": "slightly lower"}, {"measurement": "duration of the complete anesthesy", "setting": "[6]; 0.50% AL 12", "value": "more than 90 minutes"}, {"measurement": "anesthetic power vs xylocaine at a 4 times higher dose", "setting": "[6]; 0.50% AL 12 vs 2% xylocaine", "value": "higher"}, {"measurement": "times more active than lidocaine", "setting": "[1]", "value": "5-6 times"}, {"measurement": "times more powerful than procaine", "setting": "[1]", "value": "about 11.5 times"}, {"measurement": "IC50", "setting": "[7]", "value": 0.008, "unit": "µM"}, {"measurement": "effects vs tetracaine", "setting": "[7]", "value": "almost perfectly superimposable to those of tetracaine"}, {"measurement": "local anesthetic activity: lidocaine is about n times less active than AL 12", "setting": "[8]", "value": "about 4 times"}, {"measurement": "acute toxicity, times higher in comparison with lidocaine", "setting": "[9]", "value": "about 2.4 (2.37) times"}, {"measurement": "LD50", "setting": "[10]; im", "value": 32.5, "unit": "mg/kg"}, {"measurement": "LD50", "setting": "[10]; iv", "value": 13.5, "unit": "mg/kg"}]}, {"smiles": "CCN(CC)CCN1C(=O)c2ccccc2C1=Cc1ccc(OC(C)=O)cc1", "note": "[AL 12B, 3-(4-acetoxybenzylidne)-2-(β diethylaminoethyl)-phthalimidine hydrochloride]", "values": [{"measurement": "selectivity ratio at 1440 h", "setting": "[11]", "value": 10}, {"measurement": "all the investigated parameters", "setting": "[12]; 5 mg/kg i.m.", "value": "none appeared to be modified"}, {"measurement": "HBDG", "setting": "[12]; female, 10 mg/kg i.m.", "value": "increase"}, {"measurement": "LDH-P", "setting": "[12]; female, 10 mg/kg i.m.", "value": "increase"}, {"measurement": "globulins", "setting": "[12]; female, 10 mg/kg i.m.", "value": "increase"}, {"measurement": "urinary parameters, females", "setting": "[12]; female, 10 mg/kg i.m.", "value": "no alteration might be appreciated"}, {"measurement": "alterations in female animals", "setting": "[12]; female, 20 mg/kg i.m.", "value": "no alteriation might be appreciated"}, {"measurement": "body weight growth vs control", "setting": "[12]; male and female rats, 5-10-20 mg/kg i.m.", "value": "comparable with that of the control animals"}, {"measurement": "hematological parameters", "setting": "[12]; male and female, 10 mg/kg i.m.", "value": "None of the hematological parameters was modified"}, {"measurement": "body weight growth, males at higher dosages (not statistically significant)", "setting": "[12]; male rats, 10-20 mg/kg i.m.", "value": "tendentially reduced"}, {"measurement": "albumins", "setting": "[12]; male, 10 mg/kg i.m.", "value": "reduction"}, {"measurement": "amylasuria", "setting": "[12]; male, 10 mg/kg i.m.", "value": "reduced"}, {"measurement": "glycemia", "setting": "[12]; male, 10 mg/kg i.m.", "value": "reduction"}, {"measurement": "spleen weight, males", "setting": "[12]; male, 10 mg/kg i.m.", "value": "slight increase"}, {"measurement": "urinary chloride", "setting": "[12]; male, 10 mg/kg i.m.", "value": "reduced"}, {"measurement": "weight of the spleen", "setting": "[12]; male, 20 mg/kg i.m.", "value": "increased"}, {"measurement": "weight of the suprarenal glands", "setting": "[12]; male, 20 mg/kg i.m.", "value": "increased"}, {"measurement": "ALP (alkaline phosphatase)", "setting": "[12]; male, found also in female, 10 mg/kg i.m.", "value": "slight increase"}, {"measurement": "dose-dependence of the observed modifications", "setting": "[12]; rats, 5-10-20 mg/kg i.m.", "value": "none of the observed modifications, was shown to be dose-dependent"}, {"measurement": "overall toxicity", "setting": "[12]; rats, 5-10-20 mg/kg i.m.", "value": "not particularly toxic"}, {"measurement": "times more active than lidocaine", "setting": "[1]", "value": "about 4 times"}, {"measurement": "IC50", "setting": "[1]; sciatic nerve of edible frog, read-out: ED50 (reduction of action potential)", "value": 80000, "unit": "µM"}, {"measurement": "times more powerful than procaine", "setting": "[1]", "value": "at least 8.5 times"}, {"measurement": "effects vs tetracaine", "setting": "[7]", "value": "almost perfectly superimposable to those of tetracaine"}]}, {"smiles": "CCN(CC)CC(=O)Nc1c(C)cccc1C", "note": "[lidocaine]", "values": [{"measurement": "food consumption and diuresis", "setting": "[13]; all along the treatment period", "value": "normal"}, {"measurement": "all the other functions", "setting": "[13]; intramuscular, 15 days", "value": "remained unchanged"}, {"measurement": "autoptic examination", "setting": "[13]; intramuscular, 15 days", "value": "Nothing out of the rule was observed"}, {"measurement": "loss of functionality of the injected leg, duration", "setting": "[13]; intramuscular, 15 days", "value": "about one"}, {"measurement": "weight of the organs vs control animals", "setting": "[13]; intramuscular, 15 days", "value": "did not differ from that of the control animals"}, {"measurement": "local anesthetic activity, times higher than procaine", "setting": "[14]", "value": "about 2.2 times"}]}, {"smiles": "CCCCNc1ccc(C(=O)OCCN(C)C)cc1", "note": "[tetracaine, reference compound]", "values": [{"measurement": "IC50", "setting": "[7]", "value": 0.008, "unit": "µM"}]}, {"smiles": "CCN(CC)CC(=O)Nc1c(C)cccc1C", "note": "[xylocaine, reference compound]", "values": [{"measurement": "duration of the complete anesthesy", "setting": "[6]; 2% xylocaine", "value": 60, "unit": "min"}]}]}
